Results as given in paper PMC7822874, “Chemoprotective antimalarials identified through quantitative high-throughput screening of Plasmodium blood and liver stage parasites” (Scientific Reports, 2021).
“And” between values parts separate entries of the source, which are not always exact repeats. Identical values can stand only once. Like-named read-outs stand apart in the source and are kept apart here.

Legend:
[1] = system: P. falciparum Dd2 Cytb V259L; test: SYBR Green ABS proliferation assay, NCGC00473217 selected clone F06; format: cell-based, Plasmodium falciparum; conditions: Plasmodium falciparum
Procedure, shortened: (§1)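 Asexual blood-stage proliferation of cytochrome b-mutant Dd2 clones after 72 h compound exposure at 37 °C in low-oxygen gas, quantified as control-normalized SYBR Green-I fluorescence; differences tested by two-sided t-test.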

[2] = system: P. falciparum Dd2 Cytb F123L; test: SYBR Green ABS proliferation assay, NCGC00473217 selected clone G08; format: cell-based, Plasmodium falciparum; conditions: Plasmodium falciparum
Procedure, shortened: as §1

[3] = system: P. falciparum Dd2 Cytb A122D; test: SYBR Green ABS proliferation assay, NCGC00473217 selected clone F12; format: cell-based, Plasmodium falciparum; design: log AC50, mean: unit: Log[M]; conditions: for AC50: Plasmodium falciparum
Procedure, shortened: as §1

[4] = system: P. falciparum Dd2 Cytb G131S; test: SYBR Green ABS proliferation assay, NCGC00374598 selected clone C11; format: cell-based, Plasmodium falciparum; conditions: Plasmodium falciparum
Procedure, shortened: as §1

[5] = system: T1, Plasmodium falciparum Dd2-attB (parental line), asexual blood stages; test: microbe, parasite or virus in culture; design: replicate k of 3 (each line is one of three independent assays; the three lines of one compound and parasite line follow each other); conditions: n = 1
T1 construct: Dd2-attB, the isogenic parental line
Procedure, shortened: (§2)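 Three independent runs, compound subset only; parental vs ScDHODH line compared by two-sided Student's t-test.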

[6] = system: T2, Plasmodium falciparum Dd2-attB-ScDHODH (transgenic line expressing yeast DHODH), asexual blood stages; test: organism not typed; design: replicate k of 3 (each line is one of three independent assays; the three lines of one compound and parasite line follow each other); conditions: 72 h, n = 1
T2 construct: Dd2-attB-ScDHODH, the transgenic line that expresses yeast DHODH
Procedure, shortened: as §2

[7] = system: Plasmodium falciparum Dd2 asexual blood stage parasites; test: microbe, parasite or virus in culture; design: species or system Plasmodium falciparum Dd2 in human erythrocytes; single determination (one 11-point concentration-response curve); conditions: Plasmodium falciparum, DD2, Erythrocyte, 72 h; read-out: AC50
[8] = DD2, cytochrome b mutant line, third value triple, c9, […], read-out: log AC50, mean (converted)
[9] = DD2, cytochrome b mutant line, fifth value triple, c15, […], read-out: log AC50, mean (converted)
[10] = DD2, cytochrome b mutant line, second value triple, c6, […], read-out: log AC50, mean (converted)
[11] = DD2, cytochrome b mutant line, fourth value triple, c12, […], read-out: log AC50, mean (converted)

Row | Compound | AC50 [1, 8] [M] | AC50 [2, 9] [M] | log AC50, mean ([3]; cytochrome b mutant line, fourth value triple, c12, […]) | AC50 [4, 10] [M] | Individual replicates / Log AC50 (M) ([5]; 72 h) | AC50 ([5]; Plasmodium falciparum, DD2, 72 h, read-out: Individual replicates / Log AC50 (converted)) [µM] | Individual replicates / Log AC50 (M) [6] | AC50 [3, 11] [M] | AC50 [7] [µM] | AC50 ([1]; DD2, […], averaged from three independent replicates, top concentration 29 µM, read-out: Average AC50 (Log[M]), NCGC00473217 clone F06 (Cytb V259L) (converted)) [M] | AC50 ([2]; DD2, […], averaged from three independent replicates, top concentration 29 µM, read-out: Average AC50 (Log[M]), NCGC00473217 clone G08 (Cytb F123L) (converted)) [M] | AC50 ([3]; DD2, […], averaged from three independent replicates, top concentration 29 µM, read-out: Average AC50 (Log[M]), NCGC00473217 clone F12 (Cytb A122D) (converted)) [M] | AC50 ([4]; DD2, […], averaged from three independent replicates, top concentration 29 µM, read-out: Average AC50 (Log[M]), NCGC00374598 clone C11 (Cytb G131S) (converted)) [M]
1 | Oc1ccc(-c2nc(C3CC3)nc3c2CCN(Cc2ccc(F)cc2)CC3)cc1 [NCGC00480352-01] | 7.5e-06 | 6.93e-06 | -4.975 | 7.78e-06 | -5.2986 Log AC50 (M) and -5.2486 Log AC50 (M) | 5.64 | -5.1486 Log AC50 (M) (2×) and -5.1986 Log AC50 (M) | – | – | – | – | – | –
2 | O=c1[nH]c(N2CCOCC2)nc2c1CCN(Cc1ccccc1Br)CC2 [NCGC00440625-01] | 9.44e-06 | 1.19e-06 | – | 6.43e-06 | – | – | – | 6.93e-06 | 15 | – | – | – | –
3 | CC(C)c1nc2c(c(-c3ccc(O)cc3)n1)CCN(Cc1ccc(C(F)(F)F)cc1)CC2 [NCGC00480320-01] | 4.73e-06 | 4.55e-06 | – | 3.76e-06 | – | – | – | 4.91e-06 | 5.31 | – | – | – | –
4 | COc1ccc(-c2nc(C3CC3)nc3c2CCN(Cc2cccnc2)CC3)cc1 [NCGC00476959-01] | 1.81e-05 | 1.38e-05 | – | 1.33e-05 | – | – | – | 1.95e-05 | 13.3 | – | – | – | –
5 | Cc1ccc(CN2CCc3nc(C4CC4)nc(-c4ccc(O)cc4)c3CC2)cc1 [NCGC00480348-01] | 6.93e-06 | 6.68e-06 | – | 7.21e-06 | – | – | – | 7.78e-06 | 4.73 | – | – | – | –
6 | CCc1nc2c(c(-c3ccc(O)cc3)n1)CCN(Cc1ccccc1C(F)(F)F)CC2 [NCGC00480300-01] | 4.73e-06 | 4.06e-06 | – | 3.9e-06 | – | – | – | 4.22e-06 | 2.99 | – | – | – | –
7 | O=C(c1ccc(C(F)(F)F)cc1)N1CCc2nc(C3CC3)nc(-c3ccc(Cl)cc3)c2CC1 [NCGC00476963-01] | 1.58e-05 | 8.41e-06 | – | 1.28e-05 | – | – | – | 1.5e-05 | 13.3 | – | – | – | –
8 | CC(C)c1nc2c(c(-c3ccc(O)cc3)n1)CCN(Cc1ccc(OC(F)(F)F)cc1)CC2 [NCGC00480325-01] | 8.73e-06 | 6.68e-06 | – | 5.31e-06 | – | – | – | 6.43e-06 | 2.99 | – | – | – | –
9 | CC(C)c1nc2c(c(-c3ccc(O)cc3)n1)CCN(Cc1ccccc1C(F)(F)F)CC2 [NCGC00480324-01] | 4.73e-06 | 4.22e-06 | – | 4.06e-06 | – | – | – | 4.55e-06 | 4.73 | – | – | – | –
10 | CN(C)c1nc2c(c(=O)[nH]1)CCN(Cc1ccccc1Br)CC2 [NCGC00440591-01] | 1.33e-05 | 1.44e-06 | – | 6.93e-06 | – | – | – | 5.73e-06 | 9.44 | – | – | – | –
11 | O=c1[nH]c(N2CCOCC2)nc2c1CCN(Cc1ccc(Cl)c(F)c1)CC2 [NCGC00440655-01] | 1.38e-05 | 4.55e-06 | – | 1.14e-05 | – | – | – | 1.28e-05 | – | – | – | – | –
12 | COc1ccc(CN2CCc3nc(C4CC4)nc(-c4ccc(O)cc4)c3CC2)cc1 [NCGC00480355-01] | 1.61e-05 | 1.23e-05 | – | 1.06e-05 | – | – | – | 1.19e-05 | – | – | – | – | –
13 | CC(C)c1nc2c(c(-c3ccc(O)cc3)n1)CCN(CC1CCCCC1)CC2 [NCGC00480317-01] | 5.73e-06 | 5.11e-06 | – | 5.73e-06 | – | – | – | 8.41e-06 | 4.73 | – | – | – | –
14 | CCCN1C(CC(C)C)=N[S+](=O)([O-])c2cc(NC(=O)c3cccc(Cl)c3)ccc21 [NCGC00531770-01] | 3.56e-06 | 4.48e-06 | – | 4.74e-06 | – | – | – | 2.82e-06 | – | – | – | – | –
15 | CC(C)c1nc2c(c(-c3ccc(O)cc3)n1)CCN(C(=O)c1cccc(Cl)c1)CC2 [NCGC00480331-01] | 1.81e-05 | 1.19e-05 | – | 1.74e-05 | – | – | – | 1.68e-05 | – | – | – | – | –
16 | CCCN1C(CC(C)C)=N[S+](=O)([O-])c2cc(NC(=O)c3ccc(Cl)cc3)ccc21 [NCGC00531775-01] | 6.32e-07 | 3.17e-06 | – | 2e-07 | – | – | – | 2.24e-07 | – | – | – | – | –
17 | CN(C)c1nc2c(c(=O)[nH]1)CCN(Cc1ccc(Br)cc1)CC2 [NCGC00440593-01] | 9.79e-06 | 1.33e-06 | – | 5.51e-06 | – | – | – | 4.55e-06 | 13.3 | – | – | – | –
18 | CCCN1C(CC(C)C)=N[S+](=O)([O-])c2cc(N(Cc3cccs3)Cc3cccs3)ccc21 [NCGC00531812-01] | 3.56e-06 | 4.66e-06 | – | 6.32e-06 | – | – | – | 3.99e-06 | – | – | – | – | –
19 | COc1ccc(-c2nc(C(C)C)nc3c2CCN(C(=O)Cc2cccc(Cl)c2)CC3)cc1 [NCGC00479508-01] | 1.74e-05 | 1.28e-05 | – | 1.33e-05 | – | – | – | 1.44e-05 | – | – | – | – | –
20 | O=c1[nH]c(N2CCOCC2)nc2c1CCN(Cc1cc(Br)ccc1F)CC2 [NCGC00440663-01] | 2.37e-05 | 3.61e-06 | – | 6.68e-06 | – | – | – | 4.91e-06 | 5.31 | – | – | – | –
21 | CCCN1C(CC2CCCCC2)=N[S+](=O)([O-])c2cc(NC(=O)c3ccc(F)cc3)ccc21 [NCGC00532335-01] | 5.32e-06 | 2.82e-07 | – | 8.61e-07 | – | – | – | 3.3e-06 | – | – | – | – | –
22 | CN(C)c1nc2c(c(=O)[nH]1)CCN(Cc1ccc(F)cc1Cl)CC2 [NCGC00440505-01] | 1.02e-05 | 1.74e-06 | – | 6.18e-06 | – | – | – | 5.51e-06 | 10.6 | – | – | – | –
23 | O=c1[nH]c(N2CCOCC2)nc2c1CCN(Cc1ccccc1C(F)(F)F)CC2 [NCGC00440637-01] | 8.09e-06 | 6.18e-07 | – | 3.61e-06 | – | – | – | 2.66e-06 | 4.73 | – | – | – | –
24 | COc1ccc(-c2nc(C3CC3)nc3c2CCN(Cc2ccc(F)cc2)CC3)cc1 [NCGC00374624-01] | 9.79e-06 | 9.08e-06 | – | 8.73e-06 | – | – | – | 1.1e-05 | – | – | – | – | –
25 | CCCN1C(CC(C)C)=N[S+](=O)([O-])c2cc(NC(=O)c3ccc(F)c(Cl)c3)ccc21 [NCGC00531769-01] | 3.7e-06 | 3.99e-07 | – | 2.82e-06 | – | – | – | 7.38e-06 | – | – | – | – | –
26 | CCc1nc2c(c(-c3ccc(O)cc3)n1)CCN(Cc1ccc(OC)cc1)CC2 [NCGC00480297-01] | 5.11e-06 | 5.31e-06 | – | 5.11e-06 | – | – | – | 6.18e-06 | 6.68 | – | – | – | –
27 | CCCN1C(CC(C)C)=N[S+](=O)([O-])c2cc(NC(=O)c3cn(C)cn3)ccc21 [NCGC00521148-01] | – | – | – | – | – | – | – | – | – | 1.17e-05 | 7.1e-06 | 1.12e-05 | 2.67e-06
